For the test, the target named is LRRK2 (Homo sapiens, UniProt Q5S007). Description: LRRK2 WT assay (Assay B, radiometric 33P-ATP filter binding). In kind it is biochemical. The note with it: Assay B (values marked *). How it is done:
LRRK2(human) is incubated with 50 mM HEPES pH 8.0, 0.2 mM EDTA, 0.01% Brij-35, 1% (w/v) BSA, 5 mM DTT, 250 Mm […], 10 mM Magnesium acetate and [[…]]-ATP (specific activity and concentration as required).
The reaction is initiated by the addition of the Mg/ATP mix.
Chain of LRRK2 (Q5S007 whole entry): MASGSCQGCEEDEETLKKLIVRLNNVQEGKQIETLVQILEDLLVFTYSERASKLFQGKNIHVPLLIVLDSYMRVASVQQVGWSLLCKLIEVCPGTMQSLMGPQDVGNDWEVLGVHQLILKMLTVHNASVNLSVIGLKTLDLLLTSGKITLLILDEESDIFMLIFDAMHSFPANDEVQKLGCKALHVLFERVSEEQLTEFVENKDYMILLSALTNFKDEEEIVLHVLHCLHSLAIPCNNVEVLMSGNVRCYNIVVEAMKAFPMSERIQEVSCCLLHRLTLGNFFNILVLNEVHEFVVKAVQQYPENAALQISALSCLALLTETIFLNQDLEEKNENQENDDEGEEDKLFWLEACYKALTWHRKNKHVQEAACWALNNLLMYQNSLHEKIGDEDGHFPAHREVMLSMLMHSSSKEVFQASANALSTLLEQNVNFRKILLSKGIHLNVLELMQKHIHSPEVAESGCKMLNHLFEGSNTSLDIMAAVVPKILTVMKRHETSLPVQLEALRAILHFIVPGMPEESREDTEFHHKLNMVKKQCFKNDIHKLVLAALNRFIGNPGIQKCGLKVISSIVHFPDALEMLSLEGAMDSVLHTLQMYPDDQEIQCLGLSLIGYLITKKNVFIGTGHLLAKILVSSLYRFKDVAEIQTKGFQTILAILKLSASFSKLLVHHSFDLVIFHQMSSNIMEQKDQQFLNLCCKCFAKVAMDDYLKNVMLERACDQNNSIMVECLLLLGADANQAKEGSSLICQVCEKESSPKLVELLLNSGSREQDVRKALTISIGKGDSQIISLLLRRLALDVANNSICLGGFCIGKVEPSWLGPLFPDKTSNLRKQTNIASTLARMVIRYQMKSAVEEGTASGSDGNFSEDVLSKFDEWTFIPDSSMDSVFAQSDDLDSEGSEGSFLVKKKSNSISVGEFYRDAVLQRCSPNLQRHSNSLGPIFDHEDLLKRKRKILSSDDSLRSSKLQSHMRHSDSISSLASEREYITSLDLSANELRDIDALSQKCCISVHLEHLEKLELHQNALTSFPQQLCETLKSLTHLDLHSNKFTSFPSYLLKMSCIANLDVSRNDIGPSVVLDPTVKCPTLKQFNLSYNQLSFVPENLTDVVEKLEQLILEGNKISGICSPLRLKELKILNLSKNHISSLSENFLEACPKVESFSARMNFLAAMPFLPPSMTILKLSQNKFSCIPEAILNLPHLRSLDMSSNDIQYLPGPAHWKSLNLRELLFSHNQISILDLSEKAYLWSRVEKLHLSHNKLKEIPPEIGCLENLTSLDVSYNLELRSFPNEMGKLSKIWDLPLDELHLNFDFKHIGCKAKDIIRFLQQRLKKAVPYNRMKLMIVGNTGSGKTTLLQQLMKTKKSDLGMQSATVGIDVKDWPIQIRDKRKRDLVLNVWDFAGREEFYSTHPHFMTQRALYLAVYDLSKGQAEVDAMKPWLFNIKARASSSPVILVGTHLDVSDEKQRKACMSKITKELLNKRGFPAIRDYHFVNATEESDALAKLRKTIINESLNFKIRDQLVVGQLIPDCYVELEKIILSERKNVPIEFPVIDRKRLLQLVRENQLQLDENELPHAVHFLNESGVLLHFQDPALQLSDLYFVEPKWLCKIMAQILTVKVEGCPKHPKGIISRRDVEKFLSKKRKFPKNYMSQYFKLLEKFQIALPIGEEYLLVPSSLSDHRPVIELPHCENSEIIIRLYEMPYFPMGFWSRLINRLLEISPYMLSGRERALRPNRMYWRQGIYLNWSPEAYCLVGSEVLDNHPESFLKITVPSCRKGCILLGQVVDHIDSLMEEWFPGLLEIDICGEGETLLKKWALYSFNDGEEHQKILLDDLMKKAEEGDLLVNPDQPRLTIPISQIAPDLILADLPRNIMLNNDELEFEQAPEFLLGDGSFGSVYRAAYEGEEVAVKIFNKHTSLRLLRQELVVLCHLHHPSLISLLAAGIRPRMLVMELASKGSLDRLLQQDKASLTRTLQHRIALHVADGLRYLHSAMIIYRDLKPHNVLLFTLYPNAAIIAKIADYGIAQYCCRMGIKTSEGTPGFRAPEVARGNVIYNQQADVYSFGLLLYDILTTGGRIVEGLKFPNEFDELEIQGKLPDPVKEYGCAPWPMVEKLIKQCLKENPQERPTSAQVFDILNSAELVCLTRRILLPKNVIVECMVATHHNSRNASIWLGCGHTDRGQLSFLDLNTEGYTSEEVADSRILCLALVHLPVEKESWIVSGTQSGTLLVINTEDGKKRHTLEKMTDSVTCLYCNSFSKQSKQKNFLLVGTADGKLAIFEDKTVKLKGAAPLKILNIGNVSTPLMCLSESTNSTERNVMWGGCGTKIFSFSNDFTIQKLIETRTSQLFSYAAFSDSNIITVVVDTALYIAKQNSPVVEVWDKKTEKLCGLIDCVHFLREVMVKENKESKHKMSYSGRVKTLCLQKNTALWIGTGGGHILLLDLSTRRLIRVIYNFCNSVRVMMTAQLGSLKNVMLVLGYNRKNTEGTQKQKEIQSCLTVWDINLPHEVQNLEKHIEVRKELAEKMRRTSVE
`CC1COCCC1n1c(C#N)cc2cnc(Nc3cn(C)nc3OC3COC3)nc21` (single isomer, unassigned) [Example 85, ((1-methyl-3-(oxetan-3-yloxy)-1 H-pyrazol-4-yl)amino)-7-((cis)-3-methyltetrahydro-2H-pyran-4-yl)-7H-pyrrolo[2,3-d]pyrimidine-6-carbonitrile]: the IC50 was determined as 41 nM.

As for `CC1COCCC1n1c(C#N)cc2cnc(Nc3cn(C)nc3OC3COC3)nc21` (single isomer, unassigned) [Example 86, ((1-methyl-3-(oxetan-3-yloxy)-1 H-pyrazol-4-yl)amino)-7-((cis)-3-methyltetrahydro-2H-pyran-4-yl)-7H-pyrrolo[2,3-d]pyrimidine-6-carbonitrile], the IC50 turned out to be 435 nM. Consider `CO[C@H]1COC[C@H]1n1c(C#N)cc2cnc(Nc3cn(C(C)C#N)nc3OC3CC3)nc21` (stereo partly drawn) [Example 58, 2-((1-(1-Cyanoethyl)-3-cyclopropoxy-1H-pyrazol-4-yl)amino)-7-((3R,4R)-4-methoxytetrahydrofuran-3-yl)-7H-pyrrolo[2,3-d]pyrimidine-6-carbonitrile], for which the concentration for half-maximal inhibition (IC50) was found to be 15 nM. Under `CO[C@H]1COC[C@H]1n1c(C#N)cc2cnc(Nc3cn(C(C)(C)C#N)nc3OC3CC3)nc21` [Example 59, 2-((1-(2-Cyanopropan-2-yl)-3-cyclopropoxy-1H-pyrazol-4-yl)amino)-7-((3R,4R)-4-methoxytetrahydrofuran-3-yl)-7H-pyrrolo[2,3-d]pyrimidine-6-carbonitrile] stands 31 nM. `CO[C@H]1COC[C@H]1n1c(C#N)cc2cnc(Nc3cn(C(C)(C)C#N)nc3OC(C)C)nc21` [Example 60, 2-((1-(2-Cyanopropan-2-yl)-3-isopropoxy-1H-pyrazol-4-yl)amino)-7-((3R,4R)-4-methoxytetrahydrofuran-3-yl)-7H-pyrrolo[2,3-d]pyrimidine-6-carbonitrile] registered an IC50 of 42 nM. The compound `CO[C@H]1COC[C@H]1n1c(C#N)cc2cnc(Nc3cn(C(C)C)nc3OC3CC3)nc21` [Example 61, 2-((3-Cyclopropoxy-1-isopropyl-1H-pyrazol-4-yl)amino)-7-((3R,4R)-4-methoxytetrahydrofuran-3-yl)-7H-pyrrolo[2,3-d]pyrimidine-6-carbonitrile] displayed an IC50 of 133 nM. With `CO[C@H]1COC[C@H]1n1c(C#N)cc2cnc(Nc3cn(C)nc3OC(C)C)nc21` [Example 62, 2-((3-Isopropoxy-1-methyl-1H-pyrazol-4-yl)amino)-7-((3R,4R)-4-methoxytetrahydrofuran-3-yl)-7H-pyrrolo[2,3-d]pyrimidine-6-carbonitrile], the IC50 worked out at 114 nM. `CO[C@H]1COC[C@H]1n1c(C#N)cc2cnc(Nc3cn(C4COC4)nc3OC(C)C)nc21` [Example 63, 2-((3-Isopropoxy-1-(oxetan-3-yl)-1H-pyrazol-4-yl)amino)-7-((3R,4R)-4-methoxytetrahydrofuran-3-yl)-7H-pyrrolo[2,3-d]pyrimidine-6-carbonitrile] returned an IC50 of 201 nM. Under `CO[C@H]1COC[C@H]1n1c(C#N)cc2cnc(Nc3cn(C4COC4)nc3OC3CC3)nc21` [Example 64, 2-((3-Cyclopropoxy-1-(oxetan-3-yl)-1H-pyrazol-4-yl)amino)-7-((3R,4R)-4-methoxytetrahydrofuran-3-yl)-7H-pyrrolo[2,3-d]pyrimidine-6-carbonitrile] stands 135 nM. Regarding `CO[C@H]1COC[C@H]1n1c(C#N)cc2cnc(Nc3cn(C)nc3OC3CC(F)(F)C3)nc21` [Example 65, 2-((3-(3,3-Difluorocyclobutoxy)-1-methyl-1H-pyrazol-4-yl)amino)-7-((3R,4R)-4-methoxytetrahydrofuran-3-yl)-7H-pyrrolo[2,3-d]pyrimidine-6-carbonitrile], the half-maximal inhibitory concentration (IC50) was 187 nM. Under `CC[C@@H](C)Oc1nn(C)cc1Nc1ncc2cc(C#N)n([C@@H]3COC[C@@H]3OC)c2n1` [Example 66, 2-((3-((R)-sec-Butoxy)-1-methyl-1H-pyrazol-4-yl)amino)-7-((3R,4R)-4-methoxytetrahydrofuran-3-yl)-7H-pyrrolo[2,3-d]pyrimidine-6-carbonitrile] stands 119 nM.

By IC50 is commonly meant the concentration at which inhibition is half-maximal. Lower therefore signals inhibition by little substance.

These data come from patent US20240383901A1, “SUBSTITUTED PYRROLO[2,3-D]PYRIMIDINES, THEIR PREPARATION AND THEIR THERAPEUTIC APPLICATION” (SANOFI, priority 2021, published 2024).
